Test results published in EP1158000A1, “Crystal structure data of cystalysin and use thereof for the design and preparation of inhibitor molecules” (priority 2000, dated 2001).
Like-named read-outs stand apart in the source and are kept apart here.

Experiments:
cystalysin [1] = experiment: Spectral measurement of cystalysin after treatment with AVG; format: biochemical, Treponema denticola; details: chromophore at 336 nm formed simultaneously, spectra at 20°C in 100 mM phosphate buffer
Experimental: PLP-dependent enzymes catalyzing β-elimination reactions are known to be inhibited by a number of β,γ-unsaturated amino acids like the natural toxins rhizobitoxin (Owens et al., 1968) and L-aminoethoxyvinylglycine (AVG) (Pruess et al., 1974), that act as so-called slow-binding inhibitors (Morrison and Walsh, 1988). […] Spectral and fluorescence measurements lead to similar observations for cystalysin after incubation with AVG (Figure 4A). […] The inhibitor is mainly bound by hydrogen bonds to its carboxylate oxygens which originate from Ala39, Asn 175 and Arg369 (Figure 4C). […] Hydrophobic interactions are with Tyr64* and Phe273* which are in van-der-Waals contact to the carbon atoms CFI, CEI and CGI. Contrary for CBL, the amino-tail of the inhibitor is not bound to Tyr123, but stretched out in opposite direction towards a large hydrophobic cavity formed by the residues Leu17, Val38, Typ64* and Phe273* that is absent in CBL. […]
(A) The spectra of uncomplexed cystalysin and cystalysin after treatment with AVG, recorded at 20°C in 100 mM phosphate buffer. (B) Final 2Fo-Fc electron density of the PLP-AVG complex (yellow) and the intermediate protein vicinity (color-coding by atom type), contoured at 1.2 σ and calculated at 2.5 Å resolution. […]

cystalysin [2] = experiment: Loss of cystalysin enzyme activity through AVG; format: biochemical, Treponema denticola; details: dead end ketimine PLP derivative formed with AVG
Experimental: Overall, the PLP cofactor remains fixed in position with only the pyridine ring rotated slightly (≤ 10°), while no major structural changes regarding domain movement have been observed. These findings are contradicting an open/closed mechanism upon substrate binding, since the cystalysin-AVG structure should resemble the physiological enzyme-substrate complex. Due to the similarities in inhibition pattern and spectral changes, AVG should act on cystalysin in a similar manner as reported for CBL (Clausen et al., 1997). After transaldimination, a proton transfer from C^α to C4' is mediated by the deprotonated ε-amino group of the released Lys238, instead of protonating the leaving group. The resulting "dead end" ketimine PLP derivative is responsible for the observed 336 nm-chromophore and the total loss of enzyme activity. The inability of cystalysin to catalyze a transamination of this ketimine also accounts for the high stability of the final intermediate.

[3] = target: cystathionine β-lyase (CBL) (Escherichia coli, UniProt P06721); details: upon treatment with AVG; cited from earlier work
cystathionine β-lyase (CBL), sequence (P06721 2-395): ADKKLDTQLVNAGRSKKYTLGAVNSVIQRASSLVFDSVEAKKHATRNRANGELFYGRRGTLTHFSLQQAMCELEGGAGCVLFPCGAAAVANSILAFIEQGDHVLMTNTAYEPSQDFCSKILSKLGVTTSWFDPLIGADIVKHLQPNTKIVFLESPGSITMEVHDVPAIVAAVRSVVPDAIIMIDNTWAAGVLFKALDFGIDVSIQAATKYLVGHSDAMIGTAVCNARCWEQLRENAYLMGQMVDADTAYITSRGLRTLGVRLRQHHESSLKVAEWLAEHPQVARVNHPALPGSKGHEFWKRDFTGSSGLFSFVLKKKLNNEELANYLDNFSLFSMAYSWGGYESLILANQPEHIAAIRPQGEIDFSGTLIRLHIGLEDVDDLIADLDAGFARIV

cystalysin [4] = details: substrate cleavage by cystalysin; cited from earlier work
[5] = target: T1, PLP-dependent β-cystathionase (osteotoxin) (Bordetella avium, UniProt Q07703); details: cited from earlier work
T1 sequence (Q07703 2-396 limits assumed): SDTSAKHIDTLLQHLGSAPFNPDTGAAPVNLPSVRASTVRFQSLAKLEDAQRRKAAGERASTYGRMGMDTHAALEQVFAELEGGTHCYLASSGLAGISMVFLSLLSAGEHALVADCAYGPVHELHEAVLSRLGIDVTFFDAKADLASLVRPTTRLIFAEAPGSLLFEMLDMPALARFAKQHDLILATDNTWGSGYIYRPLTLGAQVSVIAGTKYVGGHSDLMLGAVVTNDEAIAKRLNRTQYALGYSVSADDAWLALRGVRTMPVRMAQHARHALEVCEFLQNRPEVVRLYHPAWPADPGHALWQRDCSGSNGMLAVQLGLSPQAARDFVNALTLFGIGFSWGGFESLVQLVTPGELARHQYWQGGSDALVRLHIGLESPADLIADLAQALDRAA

NCCO/C=C/[C@H](N)C(=O)O [AVG, L-aminoethoxyvinylglycine]
pyridoxaldimine absorbance of the active enzyme at 419 nm (cystalysin [1]): rapid and complete loss
enzyme activity (cystalysin [2]): total loss
interaction with CBL [3]: time-dependent formation of a long-lived, slowly dissociating enzyme-inhibitor compolex

N[C@@H](CS)C(=O)O [cysteine]
Kcat (cystalysin [4]): 12 s⁻¹
Km (cystalysin [4]): 3.6 mM
Km ([5]; highest affinity substrate): 0.077 mM
Km ([5]; weak affinity substrate): 5 mM
